{
  "source": "patent US20230346892A1",
  "about": "“TREATMENT OF LONG BONE FRACTURES WITH ABALOPARATIDE” (Radius Health, Inc., priority 2021, published 2023)",
  "origin": "cited, not measured here",
  "key": {"[1]": {"test_system": "internally fixed femur fractures", "conditions": "rats with internally fixed femur fractures; Lanske et al. 2019"}, "[2]": {"test_system": "osteoporosis"}},
  "data": [
    {"substance": "abaloparatide", "values": [
      {"measurement": "fracture healing", "setting": "[1]", "result": "improved fracture healing"},
      {"measurement": "bone mineral density increases", "setting": "[2]; compared with teriparatide, treating osteoporosis, Sleeman 2019, Miller 2016", "result": "greater bone mineral density increases"},
      {"measurement": "hypercalcemia", "setting": "[2]; in vivo", "result": "less hypercalcemia"}
    ]}
  ]
}
